Experimental data published in the supplement of paper PMC13207355.

Tests used:
Settings in all cases: exposure time: 72 h
E31 [1] = patient-derived glioblastoma stem cells of proneural subtype; test: surviving fraction (nuclei count normalised to DMSO); higher = more cells surviving (less toxic)
E57 [2] = patient-derived glioblastoma stem cells of mesenchymal subtype; test: as above
E34 [3] = patient-derived glioblastoma stem cells of proneural subtype; test: as above
E21 [4] = patient-derived glioblastoma stem cells of mesenchymal subtype; test: as above
E28 [5] = patient-derived glioblastoma stem cells of classical subtype; test: as above
E13 [6] = patient-derived glioblastoma stem cells of classical subtype; test: as above
FT3469 [7] = normal neural stem cell line; test: as above
E31 [8] = test: phenotypic distance (Euclidean, principal components) from DMSO controls (arbitrary units); higher = stronger morphological change
E57 [9] = test: as above
E34 [10] = test: as above
E21 [11] = test: as above
E28 [12] = test: as above
E13 [13] = test: as above
FT3469 [14] = test: as above
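Throughout, for phenotypic distance (Euclidean, principal components) from DMSO controls: cell Painting imaging in 384-well plates, CellProfiler features reduced to at least 20 principal components, Euclidean distance versus same-plate DMSO vehicle wells (0.1% v/v), median over six images per well.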
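Throughout, for surviving fraction (nuclei count normalised to DMSO): nuclei counted by high-content imaging of Hoechst-stained cells in laminin-coated 384-well plates, relative to 0.1% DMSO vehicle wells, with staurosporine as cell-death control.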

CC(=O)[C@]1(O)Cc2c(O)c3c(c(O)c2[C@@H](O[C@H]2C[C@H](N)[C@H](O)[C@H](C)O2)C1)C(=O)c1ccccc1C3=O [Idarubicin]
Settings | phenotypic distance | surviving fraction
E13 [6], 4.1 nM | – | 0.402
E13 [6], 12.3 nM | – | 0.404
E13 [6], 37 nM | – | 0.255
E13 [6], 111.1 nM | – | 0.25
E13 [6], 333.3 nM | – | 0.179
E13 [6], 1000 nM | – | 0.0911
E13 [6], 3000 nM | – | 0.0243
E13 [13], 4.1 nM | 7.02 | –
E13 [13], 12.3 nM | 6.41 | –
E13 [13], 37 nM | 6.27 | –
E13 [13], 111.1 nM | 5.38 | –
E13 [13], 333.3 nM | 6.31 | –
E13 [13], 1000 nM | 6.11 | –
E13 [13], 3000 nM | 6.59 | –
E21 [4], 4.1 nM | – | 0.371
E21 [4], 12.3 nM | – | 0.371
E21 [4], 37 nM | – | 0.165
E21 [4], 111.1 nM | – | 0.193
E21 [4], 333.3 nM | – | 0.167
E21 [4], 1000 nM | – | 0.164
E21 [4], 3000 nM | – | 0.0457
E21 [11], 4.1 nM | 7.83 | –
E21 [11], 12.3 nM | 6.13 | –
E21 [11], 37 nM | 5.05 | –
E21 [11], 111.1 nM | 5.05 | –
E21 [11], 333.3 nM | 5.58 | –
E21 [11], 1000 nM | 5.16 | –
E21 [11], 3000 nM | 8.48 | –
E28 [5], 4.1 nM | – | 0.386
E28 [5], 12.3 nM | – | 0.41
E28 [5], 37 nM | – | 0.313
E28 [5], 111.1 nM | – | 0.304
E28 [5], 333.3 nM | – | 0.271
E28 [5], 1000 nM | – | 0.18
E28 [5], 3000 nM | – | 0.241
E28 [12], 4.1 nM | 2.71 | –
E28 [12], 12.3 nM | 3.28 | –
E28 [12], 37 nM | 3.42 | –
E28 [12], 111.1 nM | 2.57 | –
E28 [12], 333.3 nM | 3.02 | –
E28 [12], 1000 nM | 4.74 | –
E28 [12], 3000 nM | 5.14 | –
E31 [1], 4.1 nM | – | 0.259
E31 [1], 12.3 nM | – | 0.226
E31 [1], 37 nM | – | 0.179
E31 [1], 111.1 nM | – | 0.149
E31 [1], 333.3 nM | – | 0.139
E31 [1], 1000 nM | – | 0.114
E31 [1], 3000 nM | – | 0.072
E31 [8], 4.1 nM | 2.69 | –
E31 [8], 12.3 nM | 2.97 | –
E31 [8], 37 nM | 3.12 | –
E31 [8], 111.1 nM | 4.59 | –
E31 [8], 333.3 nM | 4.15 | –
E31 [8], 1000 nM | 5.28 | –
E31 [8], 3000 nM | 4.78 | –
E34 [3], 4.1 nM | – | 0.611
E34 [3], 12.3 nM | – | 0.511
E34 [3], 37 nM | – | 0.54
E34 [3], 111.1 nM | – | 0.538
E34 [3], 333.3 nM | – | 0.479
E34 [3], 1000 nM | – | 0.448
E34 [3], 3000 nM | – | 0.15
E34 [10], 4.1 nM | 4.82 | –
E34 [10], 12.3 nM | 4.66 | –
E34 [10], 37 nM | 2.72 | –
E34 [10], 111.1 nM | 2.83 | –
E34 [10], 333.3 nM | 2.83 | –
E34 [10], 1000 nM | 5.05 | –
E34 [10], 3000 nM | 4 | –
E57 [2], 4.1 nM | – | 0.197
E57 [2], 12.3 nM | – | 0.205
E57 [2], 37 nM | – | 0.146
E57 [2], 111.1 nM | – | 0.166
E57 [2], 333.3 nM | – | 0.14
E57 [2], 1000 nM | – | 0.124
E57 [2], 3000 nM | – | 0.0591
E57 [9], 4.1 nM | 11.4 | –
E57 [9], 12.3 nM | 9.36 | –
E57 [9], 37 nM | 6.52 | –
E57 [9], 111.1 nM | 6.05 | –
E57 [9], 333.3 nM | 5.69 | –
E57 [9], 1000 nM | 6.02 | –
E57 [9], 3000 nM | 6.32 | –
FT3469 [7], 4.1 nM | – | 0.654
FT3469 [7], 12.3 nM | – | 0.716
FT3469 [7], 37 nM | – | 0.663
FT3469 [7], 111.1 nM | – | 0.592
FT3469 [7], 333.3 nM | – | 0.495
FT3469 [7], 1000 nM | – | 0.439
FT3469 [7], 3000 nM | – | 0.0825
FT3469 [14], 4.1 nM | 1.93 | –
FT3469 [14], 12.3 nM | 1.84 | –
FT3469 [14], 37 nM | 1.77 | –
FT3469 [14], 111.1 nM | 1.39 | –
FT3469 [14], 333.3 nM | 2.3 | –
FT3469 [14], 1000 nM | 3.94 | –
FT3469 [14], 3000 nM | 5.56 | –
